# Source: US20020035139A1, “COX-2 inhibitors and the prevention of the side effects of radiation therapy” (priority 2000, published 2002)
# Tests used:
# [1] = cited from earlier work
# PC-3 cells = details: cited from earlier work
# [2] = clinical observations during pelvic radiation for prostate carcinoma; format: in vivo, patients
# Source text: The present invention originated with observations made during pelvic radiation for prostate carcinoma.
# [3] = PC-3 cells irradiated in the presence or absence of the inhibitor
compound,measurement,setting,value
NCCCNCCSP(=O)(O)O [Ethiol],dry mouth following radiation treatment,[1]; head and neck cancer,decrease the dry mouth
same,acute mucosal effects,[1]; radiotherapy,does not limit acute mucosal effects
CS(=O)(=O)Nc1ccc([N+](=O)[O-])cc1OC1CCCCC1 [NS-398],prostaglandin (PGE(2)) level in irradiated cells,PC-3 cells; PC-3 cells irradiated in the presence of the inhibitor,reduced PGE(2) levels
same,apoptosis,PC-3 cells; [3],no differences
same,cell cycle distribution,PC-3 cells; [3],no differences
"CS(=O)(=O)c1ccc(C2=C(c3ccccc3)C(=O)OC2)cc1 [Vioxx, rofecoxib]",fatigue associated with radiotherapy,[2],decrease
same,acute mucosal effects of radiation,"[2]; urinary and gastrointestinal tracts, during radiotherapy",decrease the acute mucosal effects of radiation
